Experimental data published in PMC12657321, “Pre-clinical evaluation of a potent and effective Pin1-degrading agent in pancreatic cancer” (Molecular Therapy Oncology, 2025).
Non-standard residues stand in square brackets, D forms with d. Residues, ends and D or L forms follow the SMILES beside them. *: point of attachment. Trp(6-Cl) = N[C@@H](Cc1c[nH]c2cc(Cl)ccc12)C(=O)O; Pip = O=C(O)[C@@H]1CCCCN1; ClAc = O=C(CCl)*

Key:
[1] = target: T1, human Pin1 (Homo sapiens, UniProt Q13526); assay: Denaturation thermal shift measurements (SYPRO Orange); type: binding; settings: thermal denaturation shift of Pin1, 20 μM protein, protein:ligand 1:2, 50 mM phosphate pH 7.5, 150 mM NaCl, 3% DMSO, 10-95°C, quadruplicates
T1 construct: Residues 1–163 of human Pin1 were expressed with a thrombin cleavage site and a HisTag at the N-terminus; 6xHis (N); thrombin cleavage site (N); made in house; host or cells: E. coli
T1 sequence (Q13526 whole entry, the tested form may be a part): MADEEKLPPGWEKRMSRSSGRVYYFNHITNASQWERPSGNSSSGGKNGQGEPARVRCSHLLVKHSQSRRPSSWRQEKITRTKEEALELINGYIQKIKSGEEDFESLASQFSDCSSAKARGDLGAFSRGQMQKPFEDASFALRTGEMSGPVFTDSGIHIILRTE
Description: To assess the ability of our agents to bind and inhibit Pin1, we developed a robust biochemical assay based on the dissociation-enhanced lanthanide fluorescent immunoassay (DELFIA) platform. In our implementation, we used a biotinylated form of a known Pin1-binding peptide (D-peptide) to monitor the ability of test agents to inhibit the interaction between Pin1 and the D-peptide at various incubation times, as described previously.[32] […] In addition, as mentioned above and reported recently, we tested the ability of the agents to reduce Pin1 thermal stability in vitro by thermal denaturation measurements.[32] […] Pin1 unfolding causes a nonspecific interaction between the water-quenched fluorescent dye and the protein’s exposed hydrophobic residues, resulting in increased fluorescence. A shift in the thermal denaturation temperature between the free and bound protein is interpreted as a stabilization or destabilization event induced by the test ligand. […] To further assess whether these agents could be suitable for in vivo efficacy studies, we also performed stability assays in aqueous buffer and in plasma from various species (Table S2, Figure S2). We tested the stability of our agents in plasma from multiple mouse strains as well as in human plasma (Figure S2), given the peptide nature of the compounds. […]

[2] = target: T1, human Pin1; assay: Covalent complex formation with Pin1 by mass spectrometry; type: binding; settings: ligand 20 μM, 2:1 ligand-to-protein ratio, 10 min incubation
[3] = Stability in aqueous buffer (1x PBS); type: physicochemical; settings: 1x phosphate buffered saline, 1 μg/mL, 37°C, up to 6 h, acetonitrile quench, LC-MS/MS
Description: (§1) A solution of a Pin1 inhibitor was spiked into blank plasma at 1 μg/mL in various solutions, including an aqueous buffer (1× phosphate-buffered saline; Fisher Scientific, Fair Lawn, NJ), human plasma (Innovative Research Inc., Novi, MI), wild-type mouse plasma (Innovative Research Inc., Novi, MI), plasma form esterase-deficient mice (City of Hope, Duarte, CA), and plasma from Black 6-Cg mice (City of Hope, Duarte, CA).
(§2) The spiked plasma samples were incubated at 37°C for up to 6 h. At each designated time point, a 20 μL aliquot of the incubation sample was removed and quenched in 100 μL of acetonitrile. At the end of the incubation, the quenched samples were vortexed and centrifuged for 10 min at 4°C and 20,000 × g. The resulting supernatant was reconstituted and analyzed by LC-MS/MS.
(§3) Table S2. Stability half-life of agents reported in Table 1 after incubation at 37 °C in various media. Acq represents aqueous buffer composed of 1x phosphate buffered saline (Fisher Scientific, Fair Lawn, NJ); human represents human plasma (Innovative Research Inc., Novi, MI); mouse wt represents wild type mouse plasma (Innovative Research Inc., Novi, MI); mouse ES1e represents plasma form esterase deficient mice (City of Hope, Duarte, CA); mouse B6-Cg represents plasma from black 6-Cg mice (City of Hope, Duarte, CA). See Figure 1 for the chemical structures of these compounds.
(§4) Compound Acq Human Mouse Mouse ES1e Mouse

[4] = Human plasma stability; type: in vitro ADME; settings: 37°C, up to 6 h, acetonitrile quench, LC-MS/MS
Description: as §1, §2, §3, §4

[5] = target: Pin1 in BxPC3 cells (Homo sapiens, UniProt Q13526); assay: Pin1 recovery after degradation, capillary electrophoresis immunoassay, BxPC3; type: cell-based; design: endogenous in cells; host or cells: BxPC3; settings: BxPC3, 5 μM for 24 h, washed, serum-free media, 48 h after wash; two independent replicates
Chain of Pin1 in BxPC3 cells (Q13526 whole entry): as the sequence (Q13526 whole entry, the tested form may be a part) above
Description: To preliminarily assess the duration of Pin1 degradation in cancer cells, BxPC3 and KPC cells were treated with 164B8 for 24 h, washed, and then incubated in serum-free medium for various time points. Pin1 levels were then measured by capillary electrophoresis (Figure 3).
Figure 3 Western blot-like images of Pin1 recovery after degradation by 164B8 using capillary electrophoresis immunoassay (A) BxPC3 cells were pretreated with either 0.1% DMSO or 5 μM 164B8 for 24 h before washing and incubating in serum-free media to evaluate Pin1 recovery at 0, 6, 12, 24, and 48 h. (B) The experiment was performed in two independent replicates, and the results are plotted with the associated standard deviation. (C and D), as in (A) and (B), respectively, but testing the agents against the KPC cell line.
For capillary electrophoresis immunoassays (Figure 3), following protein quantification via the bicinchoninic acid (BCA) assay, the Jess Simple Western instrument (Protein Simple, Bio-Techne, Minneapolis, MN, USA) was utilized according to the manufacturer’s protocol for the 12–230 kDa separation module (SM-W001, Bio-Techne). […] The resulting data were analyzed using Compass for Simple Western software (v.6.3.0), utilizing the default high dynamic range 4.0 image settings and Gaussian peak fitting to obtain the area under each curve for quantification and analysis.

For `CNC(=O)[C@H](Cc1c[nH]c2ccccc12)NC(=O)[C@@H]1CCCCN1C(=O)[C@H](Cc1c[nH]c2cc(Cl)ccc12)NC(=O)CCl` [164B8] (ClAc-[Trp(6-Cl)]-[Pip]-Trp-NHMe), which “ΔTm (°C)” value [1] is on record?
Its value is −9.55 ± 0.19 °C.

What about the “% Complex (MS)” value [2] of the same compound?
Its value is “∼100%”.

And the “Stability half-life, Acq (aqueous buffer)” value [3]?
The value was > 5 h.

And the half-life at 1 μg/mL [4]?
Its half-life at 1 μg/mL is ~4.5 h.

What about the “Pin1 levels restored after exposure and wash-out” value [5] of the same compound?
Its value is “approximately 50%”.
